Assay results from article PMC11396751, “Design, Synthesis, and Anticancer Activity of Novel Enmein-Type Diterpenoid Derivatives Targeting the PI3K/Akt/mTOR Signaling Pathway” (Molecules, 2024).

What was measured:
[1] = system: HL60; design: method as in PMID 20183309, PMID 26757019, doi:10.1016/j.tetlet.2007.10.133, PMID 19431012; settings: Figure 1; cited from earlier work
[2] = system: HeLa; design: method as in PMID 20183309, PMID 26757019, doi:10.1016/j.tetlet.2007.10.133, PMID 19431012; settings: Figure 1; cited from earlier work
[3] = system: A549; design: method as in PMID 20183309, PMID 26757019, doi:10.1016/j.tetlet.2007.10.133, PMID 19431012; settings: Figure 1; cited from earlier work
[4] = system: MCF-7; design: method as in PMID 20183309, PMID 26757019, doi:10.1016/j.tetlet.2007.10.133, PMID 19431012; settings: Figure 1; cited from earlier work
[5] = system: A549 cells; assay: MTT anti-proliferative assay, A549; format: cell-based, human; settings: Homo sapiens, A549; MTT, 48 h; means ± SD of three experiments
Description: (§1) A series of novel enmein-type diterpenoid derivatives, 5a–m, were synthesized by introducing a side chain containing a carbamate moiety at the C-6 position of compound 4. The anticancer activities of 5a–m were tested against three human cancer cell lines and one human normal cell line by MTT assay.
(§2) Human non-small cell lung cancer cell lines (A549), human liver cancer cell lines (HepG2), human breast cancer cell lines (MCF-7), and human normal cell lines (L-02) were purchased from the cell bank of the Chinese Academy of Sciences. All cells were placed in RPMI-1640 medium (added 10% fetal bovine serum, […]) and cultured in an aseptic environment with 5% CO2 at 37 °C.
(§3) All derivatives were evaluated for their anti-proliferative activities against three cancer cell lines and one normal cell line by MTT assay. The cells in the logarithmic growth phase were inoculated into 96-well plates (3 × 10^3 cells/well) and incubated for 48 h in a sterile environment with 5% CO2 at 37 °C to make them attach via cell adhesion; then, the cells were co-incubated with target compounds for 48 h. After that, MTT solution (10 µL/well) was added to the cell culture medium to continue incubation for 4 h, following which the medium was replaced with DMSO (150 µL/well). The absorbance values at 490 nm were determined using an enzyme meter (Safire 2, Tecan, Männedorf, Switzerland) and further converted to half-inhibitory concentration values of these compounds.

[6] = system: HepG2 cells; assay: MTT anti-proliferative assay, HepG2; format: cell-based, human; settings: Homo sapiens, HepG2; MTT, 48 h; means ± SD of three experiments
Description: as §1, §2, §3

[7] = system: MCF-7 cells; assay: MTT anti-proliferative assay, MCF-7; format: cell-based; settings: Homo sapiens, MCF7, 48 h, means ± SD of three experiments
Description: as §1, §2, §3

[8] = system: L-02 cells; assay: MTT anti-proliferative assay, normal L-02 cells; format: cell-based; settings: Homo sapiens, L02, 48 h, means ± SD of three experiments
Description: as §1, §2, §3

| Compound | IC50 [5] | IC50 [6] | IC50 [7] | IC50 [1] | IC50 [2] | IC50 [3] | IC50 [4] | IC50 [8] |
| --- | --- | --- | --- | --- | --- | --- | --- | --- |
| C=C1C(=O)C23CC1CCC2C12COC(O)C1C(C)(C)CCC2OC3=O (centres unmarked) [Isodocarpin] |  |  |  | 0.57 µM | 4.01 µM |  |  |  |
| C=C1C(=O)[C@]23C[C@H]1C[C@H](O)C2[C@@]12CO[C@@H](OC)C1C(C)(C)CC[C@@H]2OC3=O (some centres unmarked) [Rabdosin A] |  |  |  | 2.11 µM |  | 3.53 µM | 2.82 µM |  |
| C=C1C(=O)C23C(=O)OC45CCC(C)(C)C6C(OC(=O)N7CCCCCC7)OCC64C2CCC1C3O5 (single isomer, unassigned; ent-6) [Compound 5h, ent-6β,14α-Dihydroxy-(1,7–1,14)-epoxy-7,15-dioxo-6,20-hemiketal-6,7-seco-16-kaurene-6β-yl azepane-1-carboxylate] | 18.4 ± 1.13 µM | 20.2 ± 1.33 µM | 24 ± 2.55 µM |  |  |  |  | > 50 µM |

Second part, led by results:

| IC50 [5] | IC50 [6] | IC50 [7] | Compound | IC50 [1] | IC50 [2] | IC50 [3] | IC50 [4] | IC50 [8] |
| --- | --- | --- | --- | --- | --- | --- | --- | --- |
| 14.4 ± 1.42 µM | 23.7 ± 3.4 µM | 25.1 ± 3.34 µM | C=C1C(=O)C23C(=O)OC45CCC(C)(C)C6C(OC(=O)N7CCOCC7)OCC64C2CCC1C3O5 (single isomer, unassigned; ent-6) [Compound 5i, ent-6β,14α-Dihydroxy-(1,7–1,14)-epoxy-7,15-dioxo-6,20-hemiketal-6,7-seco-16-kaurene-6β-yl bmorpholine-4-carboxylate] |  |  |  |  | 38.1 ± 2.82 µM |
| 8.37 ± 1.53 µM | 12.8 ± 1.73 µM | 8.35 ± 1.96 µM | C=C1C(=O)C23C(=O)OC45CCC(C)(C)C6C(OC(=O)CCC(=O)NCc7ccc(OC)cc7)OCC64C2CCC1C3O5 (single isomer, unassigned; ent-6) [Compound 7c, ent-6β,14α-Dihydroxy-(1,7–1,14)-epoxy-7,15-dioxo-6,20-hemiketal-6,7-seco-16-kaurene-6β-yl 4-((4-meth0xybenzyl)amino)-4-oxobutanoate] |  |  |  |  | 34.4 ± 4.37 µM |
